The record followed here is patent US11896649B2, “Methods and pharmaceutical compositions for the treatment of post-operative cognitive dysfunction” (INSERM (INSTITUT NATIONAL DE LA SANTE ET DE LA RECHERCHE …, priority 2016, dated 2024).

The subject of one assay is TNFa mRNA. The note with it: fractured mice, tissues collected 72 hours after fracture; FIG. 3a. The protocol:
(§1) All mice were anaesthetized with 2-3% sevoflurane. Adequate anesthesia was ascertained by an absent pedal withdrawal reflex after hard pinching of the toe. Closed tibial fracture was performed as previously described (Minville et al 2008). Briefly, after antiseptic preparation of the right paw with povidone-iodine, a unilateral closed fracture was produced in the right tibia using a specially designed fracture apparatus (blunt guillotine). For the intramedullary pinning using a sterile technique, a hole was made above the tibial tuberosity per-cutaneously using a 27 G needle (BD Microlance—27G ¾L 19 mm). Then, the needle was directed straight into the medullary canal. By rotating the needle, the canal was reamed to 5 mm up to the ankle joint. The end of the needle was cut as short as possible so that the skin could roll over and covers it. No suture was performed. The mouse was then placed with the leg on the anvil in order to line up the blunt guillotine with the proximal third of the tibia. A 300 g weight was decreased from a height of 9 to 10 cm, fracturing the tibia shaft.
(§2) Apelin administration (ip, 0.5 umol/kg, Bachem) has been performed 1 hour before fracture and daily during the 15 consecutive days.

Assay [1] concerns fractured mice. The protocol:
as §1, §2

In a further assay the test system is IL-6 mRNA. The note with it: fractured mice, tissues collected 72 hours after fracture; FIG. 3b. The protocol:
as §1, §2

In assay [2] the test system is fractured mice. The note with it: 20 month old mice, i.p. apelin 0.5 nmol/kg before and during 3 days after the fracture, tested after 3 days; FIG. 4.
Method: FIG. 4: Percentage of freezing in aged mice. Twenty month old male C57B16/j mice were fractured with (fracture apelin) or without (fracture PBS) an i.p treatment of apelin (0.5 nmol/kg) before and during 3 days after the fracture. After 3 days, animal hippocampal memory was tested by fear conditioning test. N=6 to 10, *p<0.05 compared to control.
To test the long-term memory and learning abilities, a fitness test to fear (Fear Conditioning Test) was used.
During the learning session, this test combines a painful and anxiety-producing event (2 short electrical discharges 0.3 mA 2 s on the legs) in an environmental context (floor cage with metal grills, washed several times a day with an alcoholic solution), visual (compound walls of black and white stripes, and white light patterns on the walls of the room) and sound (each discharge is preceded by a 80 dB sound 20 seconds). The learning phase lasted 4 minutes 25 seconds.
In the context of test sessions, conducted in the 3rd postoperative day, the animal was reintroduced in the same cage for 4 minutes. The context was the same but without sound stimulation or pain stimulus. […] Operator who ignored the treatment received by each animal evaluated the freezing time of each animal. […]

In the case of apelin, the “Hematoma TNFa mRNA expression” value in the assay with TNFa mRNA is reported as “strong decreased”. Moreover, in the assay with fractured mice [1] (apelin ip 0.5 umol/kg 1 hour before fracture and daily, tested at day 1, 5 and 15 after fracture, FIG. 1a), the “Pain and nociception measured by Von Frey technique” value is on record as “significantly decreased”. The “Pain and nociception measured by Hargreave's technique” value in the assay on fractured mice [1] (apelin ip 0.5 umol/kg 1 hour before fracture and daily, tested at day 1, 5 and 15 after fracture, FIG. 1b) was “significantly decreased”. Further, the “Freezing rate in non-operated mice” value in the assay with fractured mice [1] (non-operated mice treated by apelin, FIG. 2) is “did not display change”. Further, in the assay on fractured mice [1] (operated mice, daily injection of apelin, day 3 after fracture, FIG. 2), the “Freezing rate in operated mice, compared to operated mice receiving saline injections” value is recorded as “increased”. Also, the “Hippocampus IL-6 mRNA expression” value in the assay with IL-6 mRNA is “avoid IL-6 increase”. In addition, the “Hippocampal memory (percentage of freezing) in aged mice after fracture” value in the assay with fractured mice [2] is reported as “do not exhibit hippocampal memory failure”.
